Results reported in US20220204491A1, “FXR (NR1H4) MODULATING COMPOUNDS” (Gilead Sciences, Inc., priority 2019, published 2022).

Biological target: T1, human UGT1A1 (Homo sapiens, UniProt P22309)
T1 construct: purchased
T1 sequence (P22309 26-533): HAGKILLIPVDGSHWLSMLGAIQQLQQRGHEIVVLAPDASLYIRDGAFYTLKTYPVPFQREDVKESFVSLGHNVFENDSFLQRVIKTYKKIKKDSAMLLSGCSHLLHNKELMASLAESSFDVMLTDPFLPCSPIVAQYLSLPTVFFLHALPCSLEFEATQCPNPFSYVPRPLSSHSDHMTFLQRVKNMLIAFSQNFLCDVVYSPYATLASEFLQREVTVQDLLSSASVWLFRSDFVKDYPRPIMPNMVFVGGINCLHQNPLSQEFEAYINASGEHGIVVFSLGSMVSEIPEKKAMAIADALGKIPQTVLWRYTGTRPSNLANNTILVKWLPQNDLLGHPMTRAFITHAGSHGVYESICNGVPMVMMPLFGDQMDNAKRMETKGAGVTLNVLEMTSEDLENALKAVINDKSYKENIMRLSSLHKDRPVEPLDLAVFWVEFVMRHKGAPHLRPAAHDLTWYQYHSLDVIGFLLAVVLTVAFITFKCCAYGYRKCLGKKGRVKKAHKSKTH
Assay: UGT1A1 inhibition (estradiol 3-glucuronide formation, Supersomes)
Type: in vitro ADME
Description: The compound of Formula (I) (Example 1) was tested for inhibition of UGT1A1 and was compared against Comparative Example 1. To perform the assay, sample compound was incubated with human UGT1A1 expressed Supersomes™ (0.25 mg/mL), alamethicin (25 μg/mg) and UDPGA (5 mM) in the presence of probe substrate estradiol (10 μM) for 30 mins at 37° C. A selective UGT1A1 inhibitor, atazanavir, was screened alongside the test compounds as a positive control. The reactions were terminated by quenching an aliquot into two volumes of methanol. The samples were centrifuged at 2500 rpm for 30 mins at 4° C., and aliquots of the supernatant were diluted with formic acid in deionised water (final formic acid concentration 0.1%) and internal standard. Cyprotex generic LC-MS/MS conditions were used to monitor estradiol 3-glucuronide formation. A decrease in the formation of the metabolite compared to vehicle control is used to calculate an IC50 value.

O=C(O)c1ccc(N2CC(O)(c3ccc(OCc4c(-c5c(Cl)cc(F)cc5Cl)noc4C4CC4)cc3Cl)C2)nc1 [Example 1, 6-(3-(2-chloro-4-((5-cyclopropyl-3-(2,6-dichloro-4-fluorophenyl)isoxazol-4-yl)methoxy)phenyl)-3-hydroxyazetidin-1-yl)nicotinic acid]
UGT1A1 inhibition, comparison of the compounds (Example 1 compared against Comparative Example 1): most potent UGT1A1 inhibition of the compounds compared | IC50 (probe substrate estradiol 10 μM, 30 mins at 37° C.): 440 nM
